US4151350A, “Poly-5-hydroxycytidylic acid copolymers” (priority 1976, dated 1979)

Key:
[1] = Acute toxicity (LD50), intraperitoneal, mice (Example 6, Table 4); type: in vivo, 6 week old female albino mice; conditions: i.p.; for Estimated LD50 dose: mice
Excerpt: The toxicity of these mixtures (LD50) are compared with the toxicity of poly I alone and the double-stranded complex between poly I and poly C (poly I:C). The mixtures contained poly ho^5 C containing 62% ho^5 CMP and 38% br^5 CMP obtained by bromine water treatment of poly C as described in example 1. Some of this material was frozen in the absence of salt to produce a gelled material when thawed. This material was homogenised and mixed with an equal weight of poly I and then administered intraperitoneally to the mice. Some of the poly ho^5 C is kept unfrozen and mixed with poly I and then administered intraperitoneally to the mice.
Poly I:C was made up in HBS at 5mg. 8mg, 10mgs and 13mg/ml and 0.1ml
injected per mouse to give the total doses shown.
Poly I was made up in HBS at 12mg/ml and appropriate volumes administered
to give the final doses indicated.
in HBS to a total polynucleotide concentration of 12mg/ml and appropriate
volumes administered to give the final doses indicated.
No deaths occurred after 7 days (records maintained 2 months) and mean

[2] = particularly by virtue of its ability to induce interferon; cited from earlier work

poly I:C
Survival of mice per group ([1]; 0.5 mg total polynucleotides): 10/10
Survival of mice per group ([1]; 0.8 mg total polynucleotides): 8/10
Survival of mice per group ([1]; 1.0 mg total polynucleotides): 6/10
Survival of mice per group ([1]; 1.3 mg total polynucleotides): 0/10
Estimated LD50 dose [1]: 1.1 mg/mouse
Estimated LD50 dose ([1]; mean weight 23 g): 48 mg/kilogram
anti-viral effects [2]: known to have anti-viral effects

polyinosinic acid [poly I]
Survival of mice per group ([1]; 8 mg total polynucleotides): 5/6
Survival of mice per group ([1]; 12 mg total polynucleotides): 5/6
Survival of mice per group ([1]; 16 mg total polynucleotides): 3/6
Survival of mice per group ([1]; 24 mg total polynucleotides): 1/6
Estimated LD50 dose [1]: 16 mg/mouse
Estimated LD50 dose ([1]; mean weight 23 g): 695 mg/kilogram
